# Source: patent US8173640B1, “Compositions and methods for treating, reducing, ameliorating, or preventing infections” (Bausch & Lomb Incorporated, priority 2007, dated 2012)
# Tested on: S. aureus (ATCC 29213)
# Assay: MICs of compound having Formula IV and ciprofloxacin alone and in combination
# Assay type: cell-based
# Conditions: against S. aureus; alone
# Procedure: Compositions having various combinations of concentrations of compound having Formula IV and cirprofloxacin were tested systematically against S. aureus, P. aeruginosa, and E. coli.
structure (smiles),measurement,value
"O=C(O)c1cn(C2CC2)c2cc(N3CCNCC3)c(F)cc2c1=O [Ciprofloxacin, ciprofloxacin]",effectiveness in words,effective
